Laboratory results: patent publication US20020103228A1, “Composition and method for use of pyridinium derivatives in cosmetic and therapeutic applications” (TORRENT PHARMACEUTICALS LTD., priority 1999, published 2002)

Key:
[1] = molecular target: T1, AGE-BSA (Bos taurus, UniProt P02769); assay: In-vitro AGE breaking activity by ELISA; assay type: biochemical, Bovine; details: 37° C., 24 hours
T1 construct: Bovine serum albumin (fraction V) (BSA); from tissue; host or cells: bovine serum (fraction V); glycated in house with 1.6 M glucose at 37 °C for 16 weeks
Procedure: AGE breaking activity has been confirmed by the screening procedure as mentioned below:
Methods of experiment: Elisa (Enzyme Linked Immunosorbent Assay)
160 mg/ml of protein, bovine serum albumin, BSA and 1.6M glucose sugar were dissolved in phosphate buffered saline, PBS. Sodium azide was added at 0.02% concentration as a preservative. The solution was filtered asceptically through a […] filter and kept for aging at 37° C. for 16 weeks. After 16 weeks the solution was dialyzed against PBS, aliquoted and stored at −20° C.
To determine the AGE breaking activity, 10 μg/ml of the 16 weeks AGE-BSA was incubated with different concentrations of the test compounds at 37° C. for 24 hours and AGE breaking activity of the test compounds by ELISA was determined.
ELISA was performed as follows
1. Different concentrations of 16 weeks AGE-BSA were coated on a microtiter plate as standard. Each concentration is coated in triplicates.
2. The test samples were coated on microtiter plate at a concentration of 5 ng to 20 ng per well in triplicates
3. The plate was incubated at 37° C. for one hour.
4. After incubation the plate was washed with PBST (PBS with 0.05% Tween 20).
5. Blocking with 5% skimmed milk in PBS at 37° C. for one hour was done.
6. The plate was washed with PBST.
7. Primary antibody against AGE-BSA was added and the plate is incubated at 37° C. for one hour.
8. The plate was washed with PBST
9. Secondary antibody anti rabbit HRPO (Horse-Radish Per Oxidase) conjugate was added and the plate is incubated at 37° C. for one hour.
10. The plate was washed with PBST.
11. Colour development with OPD (orthophenylenediamine dihydrochloride) and hydrogen peroxide was done.
12. OD (optical density) at (450 nm reading-620 nm reading) was measured after incubation at 37° C. for 15 minutes with Microplate ELISA Reader
The breaker activity of the compounds were determined by the following formula: [formula]
OD450-620Control=Absorbance of 20 ng AGE-BSA after incubation at 37° C. for 24 hours without test compound
OD450-620Test=Absorbance of 20 ng AGE-BSA after incubation at 37° C. for 24 hours with required concentration of test compound
Using specific examples, the % AGE breaking activity was calculated and recorded in Table 2.

[2] = Free radical scavenging activity on ABTS radical cation; assay type: biochemical
Procedure: This method measures the relative ability of free radical scavenging substances to scavenge the ABTS^.+ i.e. 2,2-Azino-bis-(3-ethyl benzo thiazoline-6-sulfonate) radical cation as compared to a standard amount of standard or free radical scavengers antioxidants. Incubation of ABTS with Peroxidase (metmyoglobin) and hydrogen peroxide results in the production of radical cation ABTS^.+. This species is blue-green in colour and can be detected at 730 nm. Antioxidants or free radical scavengers in the added sample that causes suppression of the color to a degree that is proportional to their concentration.
Preparation of Buffer Solutions
A. Phosphate Citrate Buffer (pH 5.0). 48.5 ml of 0.1M citric acid with sufficient 0.2M disodium hydrogen phosphate to produce 100 ml.
B. Phosphate Buffer Saline (PBS): Dissolve 40.0 g of NaCl, 1.0 g of KCl, 1.0 g of KH2PO4 and 3.05 g of Na2HPO4 in 1 liter milli-Q water. Dilute 200 ml of above solution to 1 liter with milli-Q water (pH 7.4-7.6).
C. 3 μM stock solution of Peroxidase was prepared in phosphate buffer saline pH 7.4(PBS).
D. 1.08 mM stock solution of Hydrogen peroxide was prepared in phosphate buffer saline pH 7.4 (PBS).
Preparation of ABTS Stock Solution
1 tablet (10 mg) was dissolved in phosphate citrate buffer (pH 5.0).
Preparation of ABTS Working Solution
5.0 ml of ABTS stock solution was diluted with PBS to 20 ml.
Preparation of Horse Radish Peroxidase Stock Solution
320 μg of the enzyme was dissolved in 2.5 ml of PBS.
Preparation of Hydrogen Peroxide (1.08 mM) Solution
12 μl of Hydrogen Peroxide (30% w/v) was diluted to 100 ml with PBS. […]
Preparation of ABTS Radical Stock Solution
To 18 ml of ABTS stock solution, 100 μl of Horseradish Peroxidase stock solution was added.
As soon as 1.5 ml of hydrogen peroxide solution was added to the above solution, blue-green colour of the ABTS radicals appeared. This solution was incubated at 30° C. for 30 min.
Preparation of Control Solution
980 μl of ABTS radical stock solution was added to an eppendorf tube. To it was added 100 μl of various PBS solution.
Preparation of test Solution
980 μl of ABTS radical stock solutions were added to different eppendorf tubes. To it were added 100 μl of various concentrations of drug solution.
Measurement of Absorbance (O.D)
The absorbance of control and test samples was recorded immediately at 730 nm taking PBS as blank.
Calculation: The percent antioxidant activity was calculated according to the formula. % Antioxidant activity=[O.D of test sample/O.D of control*100]−100.

T1 sequence (P02769 25-607): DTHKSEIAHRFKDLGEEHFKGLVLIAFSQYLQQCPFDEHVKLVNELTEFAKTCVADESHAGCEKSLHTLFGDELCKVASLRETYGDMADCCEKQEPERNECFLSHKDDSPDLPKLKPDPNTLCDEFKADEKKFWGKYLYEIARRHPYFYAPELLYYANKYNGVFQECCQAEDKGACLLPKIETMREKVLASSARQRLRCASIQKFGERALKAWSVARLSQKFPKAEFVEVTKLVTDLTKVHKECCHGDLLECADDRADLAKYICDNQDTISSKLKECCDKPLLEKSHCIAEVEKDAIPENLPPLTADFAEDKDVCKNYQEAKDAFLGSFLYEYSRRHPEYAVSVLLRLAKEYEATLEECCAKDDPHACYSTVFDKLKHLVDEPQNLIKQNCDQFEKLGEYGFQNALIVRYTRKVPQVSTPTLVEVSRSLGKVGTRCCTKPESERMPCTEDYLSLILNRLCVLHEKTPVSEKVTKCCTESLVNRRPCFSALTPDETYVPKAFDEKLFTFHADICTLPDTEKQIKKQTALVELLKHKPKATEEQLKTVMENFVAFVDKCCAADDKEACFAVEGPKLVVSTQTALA

SMILES | % Breakage ([1]; 10 mM test compound) | Relative Free Radical Scavenging Activity (%) on ABTS ([2]; 11.5 μM) | Relative Free Radical Scavenging Activity (%) on ABTS ([2]; 23.0 μM) | Relative Free Radical Scavenging Activity (%) on ABTS ([2]; 46.0 μM) | Relative Free Radical Scavenging Activity (%) on ABTS ([2]; 92.5 μM) | Relative Free Radical Scavenging Activity (%) on ABTS ([2]; 925 μM) | % Breakage ([1]; 1 mM test compound)
O=C(NCCO)c1ccc[n+](CC(=O)c2cccs2)c1.[Br-] [Compound 90, 1-(2-Thien-2′-yl-2-oxoethyl)-3-((2-hydroxyethyl)aminocarbonyl)pyridinium bromide] | 50% | 47.8% | 58.8% | 78.2% | 99.5% | 100% | 
CCOC(=O)C[n+]1cccc(C(=O)NNc2ccccn2)c1.[Br-] [Compound 4, 1-(2-ethoxy-2-oxoethyl)-3-(2-(2-pyridyl)hydrazinocarbonyl)pyridinium bromide] | 30% | 58.2% | 64.3% | 69.3% | 98.6% | 100% | 
CCOC(=O)NNC(=O)c1ccc[n+](CC(=O)c2cccs2)c1.[Br-] [Compound 54, 1-(2-thien-2′-yl-2-oxoethyl)-3-(ethoxycarbonyl hydrazinocarbonyl)pyridinium bromide] | 33.43% | 5.22% | 15.45% | 46.82% | 77.07% |  | 
Cc1ccc(C(=O)C[n+]2cccc(C(=O)NNS(C)(=O)=O)c2)s1.[Cl-] [Compound 63, 1-(2-(5-methylthien-2-yl)-2-oxoethyl)-3-(methanesulfonyl hydrazinocarbonyl)pyridinium chloride] | 25.17% | 10.75% | 47.20% | 88.64% | 99.18% |  | 
CS(=O)(=O)NNC(=O)c1ccc[n+](CC(=O)N2CCC(Cc3ccccc3)CC2)c1.[Cl-] [Compound 51, 1-(2-(4-benzylpiperidin-1-yl)-2-oxoethyl)-3-(methanesulfonyl hydrazinocarbonyl)pyridinium chloride] | 20.94% | 0.00% | 21.64% | 52.82% | 83.94% |  | 
CS(=O)(=O)NNC(=O)c1ccc[n+](CC(=O)c2ccc([N+](=O)[O-])s2)c1.[Cl-] [Compound 67] |  | 13.11% | 50.70% | 97.46% | 99.43% |  | 42.01%
CS(=O)(=O)NNC(=O)c1ccc[n+](CC(=O)c2ccc(Cl)s2)c1.[Br-] [Compound 55, 1-(2-(5-chlorothien-2-yl)-2-oxoethyl)-3-(methanesulfonyl hydrazinocarbonyl)pyridinium bromide] | 40.85% | 46.47% | 84.97% | 99.50% | 99.93% |  | 
